Values joined by “and” are separate entries in the source; they are usually repeats but may differ in a detail not shown here. Equal values may be shown once.
Tests used:
[1] = Discrete Trial Conditioned Avoidance Test; type: in vivo, male Long-Evans rats; conditions: Rattus norvegicus, read-out: ED50 (reduces avoidance response by 50% as compared to controls)
Description: In this test the compounds are administered orally to male Long-Evans rats in a universal starch vehicle. The rats have been pre-conditioned to make a 70% avoidance response. The rats are placed in individual cages and a warning tone is sounded every 20 seconds. Each rat has the opportunity to press a bar which, if done within 5 seconds, prevents an electric shock through the grid floor of the cage and is termed an avoidance response. Each rat is given 50 trials and a score of avoidance responses is kept. The drug is administered at various dose levels. […]

[2] = "writhing syndrome" test for analgesic activity (phenyl p-quinone); type: in vivo, male Swiss albino mice; conditions: control approximately 30 per pair, active if 18 or less
Description: This method is based upon the reduction of the number of writhes following the intraperitoneal injection of one mg./kg. of body weight of phenyl p-quinone in male Swiss albino mice weighing 15-25 g. The syndrome is characterized by intermittent contractions of the abdomen, twisting and turning of the trunk, and extension of the hind legs beginning 3 to 5 minutes after injection of the phenyl p-quinone. The test compounds are administered orally at the indicated dose to groups of 2 mice each, 30 minutes before injection of the phenyl p-quinone.

[3] = reduction of spontaneous motor activity (Animax Activity Counter); type: in vivo; conditions: Rattus norvegicus, 5 min; oral, rats, 5 minute period; read-out: MDD50 (effective dose that causes a 50% reduction in motor activity)
Description: A useful test for anti-psychotic activity consists of measuring the reduction of spontaneous motor activity in animals.
Groups of 4 rats are treated orally with the test compound dissolved or suspended in starch vehicle at the maximum tolerated dose. At the estimated time of peak effect, the animals are placed singly into an Animax Activity Counter and the activity of each rat is recorded over a 5 minute period. The activity counts are compared to historical or parallel control values to determine significant increased or decreased locomotor activity.

[4] = Inhibition of tetrabenazine induced depression of exploratory behavior in mice; type: in vivo; conditions: for Number Responded/Number Treated: intraperitoneally or orally, 1 h before tetrabenazine 30 mg/kg
Description: Varying doses of the test compounds are administered intraperitoneally or orally to 5 mice one hour before the administration of tetrabenazine hexamate at an intraperitoneal dose of 30 mg/kg which is known to depress markedly the exploratory behavior of normal mice. Thirty minutes later the mice are tested for their exploratoy behavior. Individual mice are placed in the center of a horizontal disc. Inhibition of the depression induced by tetrabenazine is considered present if the mice perform one or more of the following actions within 10 seconds after being placed on the disc:
(1) Animals move to the edge of the disc and pear over the side.
(2) Animals move 180° in place.
(3) Animals display a head movement of 90° immediately followed by a head movement in the opposite direction of at least 45°.
Administration of the test compounds to additional groups of 5 mice is repeated, the numbers of individual animals showing an anti-depressant response (normal exploratory behavior) is recorded and the results are analyzed by the following scheme (statistically standardized; significant P = less than 0.05).
The results from several dose levels (acceptance in at least two sequential test procedures) are then used to establish the Range of Active Doses.

[5] = Prevention of reserpine-induced hypothermia in rats; type: in vivo; conditions: for ED50: Rattus norvegicus, oral, dose column in mg/kg, read-out: ED50 (95% C.L.)
Description: Groups of 5 rats were treated orally with graded doses of the test compounds. One hour later the animals were treated with reserpine (solubilized in propylene glycol and citric acid) at a dose of 5 mg/kg intraperitoneally. Rectal temperatures were measured using a YSI Telethermometer. Temperatures were recorded just prior to treatment, one hour later just prior to reserpine administration and at hourly intervals following reserpine administration for 5 hours. […]

[6] = Enhancement of yohimbine lethality in mice; type: in vivo; conditions: yohimbine 34 mg/kg
Description: The test compounds were administered intraperitoneally, at various dose levels, to groups of 10 mice. One hour later all mice received yohimbine at a dose (34 mg/kg) estimated to have a lethal effect in 4% of the mice. Deaths were recorded 18 to 24 hours later.

[7] = modified Randall and Selitto analgesic test, brewers yeast inflamed paw; type: in vivo, rats; conditions: 200 mg/Kg oral; two hours after yeast; active if T/C ≥ 1.37
Description: To determine analgesic activity, a modification of the method of Randall and Selitto [Arch. Int. […] This test measures the pain threshold of rats whose paws are made sensitive to pressure by the injection of 0.1 ml. of a 20% aqueous suspension of brewers yeast into the plantar surface of the left hind paw. Constantly increasing force (16 g/second) is applied to the swollen paw using an Analgesy Meter, Ugo Basile. The pressure is cut off at 250 g. of force when there is no response (sudden struggle or vocalization). […] Pressure-pain thresholds are always recorded two hours after administration of Brewers' yeast. Test compounds are administered at the same time as the yeast, at an oral dose of 200 mg/Kg. Ratios of treated (T)/control (C) reaction thresholds are calculated as estimates of analgesic efficacy (degree of analgesia obtainable).

reversible ptosis test = type: in vivo; conditions: oral, rats
Description: A useful test for anti-psychotic activity consists of measuring ptosis in animals.
Ptosis is defined as closure of the palpebral aperture (eyelid) greater than 70%. The compounds to be tested were administered orally to groups of 10 rats each. Periodically after treatment the rats were gently placed on the cage top and examined for 90 seconds for signs of ptosis. This manipulation eliminates spontaneous ptosis. The rats were then dropped from a height of about 18 inches (exteroceptive stimulation) onto the cage top to test for reversibility of ptosis. Reversible ptosis is defined as less than 70% closure of the palpebral aperture for longer than one minute after the exteroceptive stimulation and is indicative of neuroleptic activity of the drug administered.

CN(C)CCCN1c2ccccc2Sc2ccc(Cl)cc21 [Chlorpromazine, reference compound]
ED50 ([1]; po): 9 mg/kg

CN1CCN(C2=Nc3ccccc3N(C)c3cscc32)CC1 [4-Methyl-10-(4-methyl-1-piperazinyl)-4H-thieno[3,4-b][1,5]benzodiazepine]
No. of Writhes Per Pair ([2]; 50 mg/kg oral): 0
ED50 [3]: 12 mg/kg
ED50 ([1]; oral, male Long-Evans rats): 17 mg/kg
Number Responded/Number Treated ([4]; 0.78 mg/kg): 1/10
Number Responded/Number Treated ([4]; 1.56 mg/kg): 3/10
Number Responded/Number Treated ([4]; 3.13 mg/kg): 6/10
Number Responded/Number Treated ([4]; 6.25 mg/kg): 6/10
Number Responded/Number Treated ([4]; 12.5 mg/kg): 7/10
Number Responded/Number Treated ([4]; 25.0 mg/kg): 8/10
ED50 ([4]; Mus musculus, calculated by method of Finney, dose column in mg/kg, read-out: ED50 (95% C.L.)): 4.2 mg/kg
Percent of Animals Showing > Two Standard Deviations in Rectal Temperature Over Control Means ([5]; 0.20 mg/kg oral, 2 hours after reserpine): 0%
Percent of Animals Showing > Two Standard Deviations in Rectal Temperature Over Control Means ([5]; 0.20 mg/kg oral, 3 hours after reserpine): 0%
Percent of Animals Showing > Two Standard Deviations in Rectal Temperature Over Control Means ([5]; 0.20 mg/kg oral, 4 hours after reserpine): 0%
Percent of Animals Showing > Two Standard Deviations in Rectal Temperature Over Control Means ([5]; 0.20 mg/kg oral, 5 hours after reserpine): 0%
Percent of Animals Showing > Two Standard Deviations in Rectal Temperature Over Control Means ([5]; 0.39 mg/kg oral, 2 hours after reserpine): 0%
Percent of Animals Showing > Two Standard Deviations in Rectal Temperature Over Control Means ([5]; 0.39 mg/kg oral, 3 hours after reserpine): 0%
Percent of Animals Showing > Two Standard Deviations in Rectal Temperature Over Control Means ([5]; 0.39 mg/kg oral, 4 hours after reserpine): 0%
Percent of Animals Showing > Two Standard Deviations in Rectal Temperature Over Control Means ([5]; 0.39 mg/kg oral, 5 hours after reserpine): 0%
Percent of Animals Showing > Two Standard Deviations in Rectal Temperature Over Control Means ([5]; 0.78 mg/kg oral, 2 hours after reserpine): 33%
Percent of Animals Showing > Two Standard Deviations in Rectal Temperature Over Control Means ([5]; 0.78 mg/kg oral, 3 hours after reserpine): 7%
Percent of Animals Showing > Two Standard Deviations in Rectal Temperature Over Control Means ([5]; 0.78 mg/kg oral, 4 hours after reserpine): 7%
Percent of Animals Showing > Two Standard Deviations in Rectal Temperature Over Control Means ([5]; 0.78 mg/kg oral, 5 hours after reserpine): 27%
Percent of Animals Showing > Two Standard Deviations in Rectal Temperature Over Control Means ([5]; 1.56 mg/kg oral, 2 hours after reserpine): 100%
Percent of Animals Showing > Two Standard Deviations in Rectal Temperature Over Control Means ([5]; 1.56 mg/kg oral, 3 hours after reserpine): 40%
Percent of Animals Showing > Two Standard Deviations in Rectal Temperature Over Control Means ([5]; 1.56 mg/kg oral, 4 hours after reserpine): 0%
Percent of Animals Showing > Two Standard Deviations in Rectal Temperature Over Control Means ([5]; 1.56 mg/kg oral, 5 hours after reserpine): 60%
Percent of Animals Showing > Two Standard Deviations in Rectal Temperature Over Control Means ([5]; 3.13 mg/kg oral, 2 hours after reserpine): 50%
Percent of Animals Showing > Two Standard Deviations in Rectal Temperature Over Control Means ([5]; 3.13 mg/kg oral, 3 hours after reserpine): 30%
Percent of Animals Showing > Two Standard Deviations in Rectal Temperature Over Control Means ([5]; 3.13 mg/kg oral, 4 hours after reserpine): 30%
Percent of Animals Showing > Two Standard Deviations in Rectal Temperature Over Control Means ([5]; 3.13 mg/kg oral, 5 hours after reserpine): 20%
Percent of Animals Showing > Two Standard Deviations in Rectal Temperature Over Control Means ([5]; 6.25 mg/kg oral, 2 hours after reserpine): 80%
Percent of Animals Showing > Two Standard Deviations in Rectal Temperature Over Control Means ([5]; 6.25 mg/kg oral, 3 hours after reserpine): 80%
Percent of Animals Showing > Two Standard Deviations in Rectal Temperature Over Control Means ([5]; 6.25 mg/kg oral, 4 hours after reserpine): 80%
Percent of Animals Showing > Two Standard Deviations in Rectal Temperature Over Control Means ([5]; 6.25 mg/kg oral, 5 hours after reserpine): 0%
Percent of Animals Showing > Two Standard Deviations in Rectal Temperature Over Control Means ([5]; 12.5 mg/kg oral, 2 hours after reserpine): 100%
Percent of Animals Showing > Two Standard Deviations in Rectal Temperature Over Control Means ([5]; 12.5 mg/kg oral, 3 hours after reserpine): 100%
Percent of Animals Showing > Two Standard Deviations in Rectal Temperature Over Control Means ([5]; 12.5 mg/kg oral, 4 hours after reserpine): 100%
Percent of Animals Showing > Two Standard Deviations in Rectal Temperature Over Control Means ([5]; 12.5 mg/kg oral, 5 hours after reserpine): 20%
ED50 ([5]; 2 hours after reserpine): 1.6 mg/kg
ED50 ([5]; 3 hours after reserpine): 2.9 mg/kg
ED50 ([5]; 4 hours after reserpine): 3.5 mg/kg
Number Dead/Number Treated ([6]; 10 mg/kg intraperitoneal, 18 hours): 3/10
Number Dead/Number Treated ([6]; 10 mg/kg intraperitoneal, 24 hours): 8.10
Number Dead/Number Treated ([6]; 20 mg/kg intraperitoneal, 18 hours): 6/10
Number Dead/Number Treated ([6]; 20 mg/kg intraperitoneal, 24 hours): 8/10
Number Dead/Number Treated ([6]; 40 mg/kg intraperitoneal, 18 hours): 4/10
Number Dead/Number Treated ([6]; 40 mg/kg intraperitoneal, 24 hours): 8/10

CN1CCN(C2=Nc3cc(Cl)ccc3N(C)c3cscc32)CC1.[O-][Cl+3]([O-])([O-])O.[O-][Cl+3]([O-])([O-])O [7-Chloro-4-methyl-10-(4-methyl-1-piperazinyl)-4H-thieno[3,4-b][1,5]benzodiazepine diperchlorate]
Ratio T/C (treated/control reaction thresholds) [7]: 1.55
ED50 [3]: 25 mg/kg

CN1CCN(C2=Nc3ccccc3Nc3cscc32)CC1 [10-(4-Methyl-1-piperazinyl)-4H-thieno[3,4-b][1,5]benzodiazepine]
No. of Writhes Per Pair ([2]; 6.25 mg/kg oral): 4 and 2
Ratio T/C (treated/control reaction thresholds) [7]: 1.57
ED50 [3]: 6.1 mg/kg
ED50 (dose estimated to create reversible ptosis in 50% of the animals) (reversible ptosis test): 13 mg/kg
ED50 ([1]; oral, male Long-Evans rats): 7 mg/kg

CN1CCN(C2=Nc3cc(Cl)ccc3Nc3cscc32)CC1.[O-][Cl+3]([O-])([O-])O.[O-][Cl+3]([O-])([O-])O [7-Chloro-10-(4-methyl-1-piperazinyl)-4H-thieno[3,4-b][1,5]benzodiazepine diperchlorate]
No. of Writhes Per Pair ([2]; 1.6 mg/kg oral): 1 and 2
ED50 [3]: 20 mg/kg
ED50 (dose estimated to create reversible ptosis in 50% of the animals) (reversible ptosis test): 10 mg/kg
